Counter-ions that a name gives are not always drawn. Like-named read-outs stand apart in the source and are kept apart here.
What was measured:
BRD4(1) = biological target: T1, BRD4(1) (Homo sapiens, UniProt O60885); test: Inhibition of tetra-acetylated histone H4 binding to individual BET bromodomains (AlphaScreen); settings: His-tagged BRD4(1) 20 nM, biotinylated tetra-acetylated histone H4 peptide, 30 min incubation; read-out: FRET activity BRD4(1)
T1 construct: N-terminally His-tagged bromodomains (BRD4(1) at 20 nM and BRD4(2) at 100 nM); made in house; host or cells: E. coli BL21(DE3)
Procedure: Proteins were cloned and overexpressed with a N-terminal 6×His tag, then purified by nickel affinity followed by size exclusion chromatography. Briefly, E. coli BL21(DE3) cells were transformed with a recombinant expression vector encoding N-terminally Nickel affinity tagged bromodomains from Brd2, Brd3, Brd4. Cell cultures were incubated at 37° C. with shaking to the appropriate density and induced overnight with IPTG. The supernatant of lysed cells was loaded onto Ni-IDA column for purification. Eluted protein was pooled, concentrated and further purified by size exclusion chromatography. Fractions representing monomeric protein were pooled, concentrated, aliquoted, and frozen at −80° C. for use in subsequent experiments.
Binding of tetra-acetylated histone H4 peptide (Millipore) and BET bromodomains was confirmed by Amplified Luminescent Proximity Homogenous Assay (AlphaScreen). N-terminally His-tagged bromodomains (BRD4(1) at 20 nM and BRD4(2) at 100 nM) and biotinylated tetra-acetylated histone H4 (10-25 nM) were incubated in the presence of nickel chelate acceptor beads and streptavidin donor beads (PerkinAlmer, 6760000K) added to a final concentration of 2 μg/mL under green light in a white 96 well microtiter plate (Greiner). For inhibition assays, serially diluted compounds were added to the reaction mixtures in a 0.1% final concentrations of DMSO. Final buffer concentrations were 50 mM HEPES, 100 mM NaCl and 0.1% BSA buffer, pH 7.4 and optimized to 30 min incubation time. Assay plates were read at 570 nm on a Synergy H4 Plate Reader (Biotek). IC50 values were determined from a dose response curve.

MV4-11 cells = test: Inhibition of cell proliferation in cancer cell lines (MV4-11, CellTiter Aqueous One); type: cell-based; settings: Homo sapiens, read-out: Proliferation activity
Procedure: MV4-11 cells (CRL-9591) were plated at a density of 5×10^4 cells per well in 96 well flat bottom plates and treated with increasing concentrations of test compound or DMSO (0.1%) in IMDM media containing 10% FBS and penicillin/streptomycin. Triplicate wells were used for each concentration and a well containing only media was used as a control. Plates were incubated at 37° C., 5% CO2 for 72 h before adding 20 μL of the CellTiter Aqueous One Solution (Promega) to each well and incubating at 37° C., 5% CO2 for an additional 3-4 h. The absorbance was read at 490 nm in a spectrophotometer and the percentage of cell titer relative to DMSO-treated cells was calculated after correcting for background by subtracting the blank well's signal. IC50 values were calculated using the GraphPad Prism software.

cMYC = test: Inhibition of cMYC expression in cancer cell lines (MV4-11, real-time PCR); type: cell-based; settings: Homo sapiens, read-out: Myc activity
Procedure: MV4-11 cells (CRL-9591) were plated at a density of 2.5×10^4 cells per well in 96 well U-bottom plates and treated with increasing concentrations of test compound or DMSO (0.1%) in IMDM media containing 10% FBS and penicillin/streptomycin, and incubated for 3 h at 37° C. Triplicate wells were used for each concentration. Cells were pelleted by centrifugation and harvested using the mRNA Catcher PLUS kit according to manufacturer's instructions. The eluted mRNA isolated was then used in a one-step quantitative real-time PCR reaction, using components of the RNA UltraSense™ One-Step Kit (Life Technologies) together with Applied Biosystems TaqMan® primer-probes for cMYC and Cyclophilin. Real-time PCR plates were run on a ViiA™7 real time PCR machine (Applied Biosystems), data were analyzed, normalizing the Ct values for cMYC to an internal control, prior to determining the fold expression of each sample, relative to the control.

[1] = MV4-11 cells, 3 h incubation, cMYC mRNA

IC50 (BRD4(1)) [nM] | IC50 (MV4-11 cells; MV4-11 cells, 72 h incubation) [nM] | IC50 (cMYC; [1]) [nM] | SMILES | IC50 (MV4-11 cells; MV4-11, 72 h) [nM] | IC50 (cMYC; MV4-11, 3 h) [nM]
300 to 3000 |  |  | C=CC(=O)N(CC)c1cnc2c(c1)n(Cc1ccccc1)c(=O)n2C [Example 14, N-(1-Benzyl-3-methyl-2-oxo-2,3-dihydro-1H-imidazo[4,5-b]pyridin-6-yl)-N-ethylacrylamide] |  | 
≤ 300 | 3000 to 30000 | 3000 to 30000 | C=CC(=O)N(C)c1cnc2nc(N3CCOCC3)n(Cc3ccccc3)c2c1 [Example 16, N-(1-Benzyl-2-morpholino-1H-imidazo[4,5-b]pyridin-6-yl)-N-methylacrylamide] |  | 
≤ 300 | 3000 to 30000 | 300 to 3000 | C=CC(=O)N(C)c1cnc2nc(N(C)C)n(Cc3ccccc3)c2c1 [Example 19, N-(1-Benzyl-2-(dimethylamino)-1H-imidazo[4,5-b]pyridin-6-yl)-N-methylacrylamide] |  | 
≤ 300 | 300 to 3000 | 300 to 3000 | C=CC(=O)N(C)c1cnc2nc(NC3CCOCC3)n(Cc3ccccc3)c2c1 [Example 20, N-(1-Benzyl-2-((tetrahydro-2H-pyran-4-yl)amino)-1H-imidazo[4,5-b]pyridin-6-yl)-N-methylacrylamide] |  | 
≤ 300 | 300 to 3000 | 300 to 3000 | C=CC(=O)N(C)c1cnc2nc(NC)n(Cc3ccccc3)c2c1 [Example 21, N-(1-Benzyl-2-(methylamino)-1H-imidazo[4,5-b]pyridin-6-yl)-N-methylacrylamide] |  | 
≤ 300 | 300 to 3000 | 300 to 3000 | C=CC(=O)N(C)c1cnc2nc(N3CC=CC3)n(Cc3ccccc3)c2c1 [Example 22, N-(1-Benzyl-2-(2,5-dihydro-1H-pyrrol-1-yl)-1H-imidazo[4,5-b]pyridin-6-yl)-N-methylacrylamide hydrochloride] |  | 
300 to 3000 | 3000 to 30000 | 300 to 3000 | C=CC(=O)N(C)c1cnc2nc(N3CCCCC3)n(Cc3ccccc3)c2c1 [Example 23, N-(1-Benzyl-2-(piperidin-1-yl)-1H-imidazo[4,5-b]pyridin-6-yl)-N methylacrylamide] |  | 
≤ 300 | 300 to 3000 | < 300 | C=CC(=O)N(C)c1cnc2nc(N3CC[C@H](CO)C3)n(Cc3ccccc3)c2c1 [Example 25, (S)—N-(1-Benzyl-2-(3-(hydroxymethyl)pyrrolidin-1-yl)-1H-imidazo[4,5-b]pyridin-6-yl)-N-methylacrylamide] |  | 
≤ 300 | 3000 to 30000 | 300 to 3000 | C=CC(=O)N(C)c1cnc2nc(N3CC(CO)C3)n(Cc3ccccc3)c2c1 [Example 26, N-(1-Benzyl-2-(3-(hydroxymethyl)azetidin-1-yl)-1H-imidazo[4,5-b]pyridin-6-yl)-N-methylacrylamide] |  | 
300 to 3000 | 3000 to 30000 | 3000 to 30000 | C=CC(=O)N(C)c1cnc2nc(N3C[C@H]4CN(C)C[C@H]4C3)n(Cc3ccccc3)c2c1 [Example 27, N-(1-Benzyl-2-((3aR,6aS)-5-methylhexahydropyrrolo[3,4-c]pyrrol-2(1H)-yl)-1H-imidazo[4,5-b]pyridin-6-yl)-N-methylacrylamide] |  | 
≤ 300 | 300 to 3000 | 300 to 3000 | CCC(=O)N(C)c1cnc2nc(N3CCCC3)n(Cc3ccccc3)c2c1 [Example 28, N-(1-Benzyl-2-(pyrrolidin-1-yl)-1H-imidazo[4,5-b]pyridin-6-yl)-N-methylpropionamide] |  | 
≤ 300 | 300 to 3000 | 300 to 3000 | CN(C(=O)C1CC1)c1cnc2nc(N3CCCC3)n(Cc3ccccc3)c2c1 [Example 29, N-(1-Benzyl-2-(pyrrolidin-1-yl)-1H-imidazo[4,5-b]pyridin-6-yl)-N-methylcyclopropanecarboxamide] |  | 
300 to 3000 | 3000 to 30000 | 300 to 3000 | CNC(=O)N(C)c1cnc2nc(N3CCCC3)n(Cc3ccccc3)c2c1 [Example 31, 1-(1-Benzyl-2-(pyrrolidin-1-yl)-1H-imidazo[4,5-b]pyridin-6-yl)-1,3-dimethylurea] |  | 

Continued, compound first:

SMILES | IC50 (BRD4(1)) [nM] | IC50 (MV4-11 cells; MV4-11 cells, 72 h incubation) [nM] | IC50 (cMYC; [1]) [nM] | IC50 (MV4-11 cells; MV4-11, 72 h) [nM] | IC50 (cMYC; MV4-11, 3 h) [nM]
CC(=O)Nc1cnc2nc(C)n(Cc3ccccc3)c2c1 [Example 1, N-(1-Benzyl-2-methyl-1H-imidazo[4,5-b]pyridin-6-yl)acetamide] | 3000 to 30000 |  |  |  | 
CC(=O)N(C)c1cnc2nc(C)n(Cc3ccccc3)c2c1 [Example 3, N-(1-Benzyl-2-methyl-1H-imidazo[4,5-b]pyridin-6-yl)—N-methylacetamide] | ≤ 300 |  |  | 3000 to 30000 | 3000 to 30000
C=CC(=O)N(C)c1cnc2nc(C)n(Cc3ccccc3)c2c1 [Example 4, N-(1-Benzyl-2-methyl-1H-imidazo[4,5-b]pyridin-6-yl)-N-methylacrylamide] | ≤ 300 | 3000 to 30000 | 300 to 3000 |  | 
Cc1nc2ncc(N(C)C(=O)CCCl)cc2n1Cc1ccccc1 [Example 5, N-(1-Benzyl-2-methyl-1H-imidazo[4,5-b]pyridin-6-yl)-3-chloro-N-methylpropanamide] | 300 to 3000 | 3000 to 30000 | 3000 to 30000 |  | 
CCN(C(C)=O)c1cnc2nc(C)n(Cc3ccccc3)c2c1 [Example 6, N-(1-Benzyl-2-methyl-1H-imidazo[4,5-b]pyridin-6-yl)-N-ethylacetamide] | 300 to 3000 |  |  |  | 3000 to 30000
C=CC(=O)N(CC)c1cnc2nc(C)n(Cc3ccccc3)c2c1 [Example 7, N-(1-Benzyl-2-methyl-1H-imidazo[4,5-b]pyridin-6-yl)-N-ethylacrylamide] | 300 to 3000 |  |  |  | 
CN(C(=O)CCCl)c1cnc2c(c1)n(Cc1ccccc1)c(=O)n2C [Example 10, N-(1-Benzyl-3-methyl-2-oxo-2,3-dihydro-1H-imidazo[4,5-b]pyridin-6-yl)-3-chloro-N-methylpropanamide] | 3000 to 30000 | 3000 to 30000 |  |  | 
CC(=O)N(C)c1cnc2c(c1)n(Cc1ccccc1)c(=O)n2C [Example 11, N-(1-Benzyl-3-methyl-2-oxo-2,3-dihydro-1H-imidazo[4,5-b]pyridin-6-yl)-N-methylacetamide] | ≤ 300 | 3000 to 30000 | 3000 to 30000 |  | 
C=CC(=O)N(C)c1cnc2c(c1)n(Cc1ccccc1)c(=O)n2C [Example 12, N-(1-Benzyl-3-methyl-2-oxo-2,3-dihydro-1H-imidazo[4,5-b]pyridin-6-yl)-N-methylacrylamide] | ≤ 300 | 3000 to 30000 | 3000 to 30000 |  | 
CCN(C(C)=O)c1cnc2c(c1)n(Cc1ccccc1)c(=O)n2C [Example 13, N-(1-Benzyl-3-methyl-2-oxo-2,3-dihydro-1H-imidazo[4,5-b]pyridin-6-yl)-N-ethylacetamide] | 300 to 3000 |  |  |  | 
C=CC(=O)N(C)c1cnc2nc(N3CCC3)n(Cc3ccccc3)c2c1 [Example 17, N-(2-(Azetidin-1-yl)-1-benzyl-1H-imidazo[4,5-b]pyridin-6-yl)-N-methylacrylamide] | ≤ 300 |  |  | 300 to 3000 | 300 to 3000
C=CC(=O)N(C)c1cnc2nc(N3C4CCC3CC(O)C4)n(Cc3ccccc3)c2c1 (centres unmarked) [Example 24, N-(1-Benzyl-2-(3-hydroxy-8-azabicyclo[3.2.1]octan-8-yl)-1H-imidazo[4,5-b]pyridin-6-yl)-N-methylacrylamide] | ≤ 300 |  |  | 3000 to 30000 | 300 to 3000
COC(=O)N(C)c1cnc2nc(N3CCCC3)n(Cc3ccccc3)c2c1 [Example 30, Methyl (1-benzyl-2-(pyrrolidin-1-yl)-1H-imidazo[4,5-b]pyridin-6-yl)(methyl) carbamate] | ≤ 300 |  |  | 300 to 3000 | 300 to 3000

From US20190263799A1, “1H-IMIDAZO[4,5-B]PYRIDINYL AND 2-OXO-2,3-DIHYDRO-1H-IMIDAZO[4,5-B]PYRIDINYL HETEROCYCLIC BET BROMODOMAIN INHIBITORS” (ZENITH EPIGENETICS LTD., priority 2015, published 2019)
